Measured values published in patent US11813332B2, “Photosensitizer-peptide conjugate comprising degradable linker, and composition for photodynamic diagnosis or treatment comprising same” (NATIONAL CANCER CENTER, priority 2016, dated 2023).
Residues, ends and D or L forms follow the SMILES beside them. *: point of attachment. X1 = C=Cc1c(C)c2cc3nc(c(C)c4nc(cc5[nH]c(cc1[nH]2)c(C)c5CC)C(C)=C4C(=O)O)[C@@H](CCC(=O)*)[C@@H]3C

Tests used:
PCA-SMC cells [1] = assay: Cell absorption and fluorescence activity, confocal laser microscope; type: cell-based, human; conditions: 2 μM, 4 hours
Description: (§1) Thereafter, the existing medium was replaced with 200 μl of a fresh medium in which 2 μM the conjugate was dissolved, and the cells were cultured for 30 minutes, 1 hour, and 4 hours, respectively.

HCC70 cells [2] = assay: Real-time observation of fluorescence quenching and recovery without washing (live cell imaging); type: cell-based, human; conditions: no washing, images over 4 hours
Description: An experiment was conducted to verify whether a C-EGFR conjugate of the present invention in which fluorescence signal generation has been quenched from outside the target cell strongly generates fluorescence after the absorption of the C-EGFR conjugate into target cells. EGFR-overexpressing HCC70 cells were treated with the C-EGFR conjugate and free photosensitizer (Ce4), and then fluorescence images were obtained at regular time intervals without washing. The detailed method is provided as follows.
The existing medium was then replaced with 0.5 ml of fresh medium including the conjugate and the free photosensitizer. Thereafter, each of the near infrared light fluorescence images (λEx. 640±15 nm, λEm. 690±25 nm) were obtained at intervals of 15 minutes for 4 hours using the Live Cell Imaging System (Axio Observer Z1, Carl Zeiss, Germany) without washing the cells.

HCC70 cells [3] = assay: Cell absorption and fluorescence activity, confocal laser microscope; type: cell-based, human; conditions: 2 μM, 4 hours
Description: In the 8-well Lab-Tek chamber, 5×10^3 PCA-SMC cells and 5×10^4 HCC70 cells were put in each well.

[4] = Singlet oxygen generation (SOSG) under 670 nm laser after DTT treatment; conditions: for Increase of singlet oxygen generation: 5 mM DTT, 4 hours, 670 nm laser 50 mW/cm^2; for Generation of singlet oxygen in the quenched state: DTT not treated or 2 μM DTT
Description: Singlet oxygen generation (SOG) was measured by the following method. The C-EGFR conjugate thus obtained was dissolved in PBS to be 2 μM, and then DTT-treated samples were mixed with 2 μM and 5 mM DTT, respectively, and the same amount of PBS was mixed in the buffer-treated group. The mixed solution (200 μl) was cultured at 37° C. for 4 hours. Subsequently, oxygen-saturated PBS including concentrated singlet oxygen sensor green (SOSG) was mixed and the final SOSG concentration was adjusted to 5 μM. Fluorescence intensity change of the SOSG was periodically measured using a 670 nm continuous wavelength laser device during the light irradiation (light irradiation dose: 50 mW/cm^2) of the sample.
In addition, in order to confirm the generation of singlet oxygen (SOG), the same method as in Example 2 was performed and analyzed.

HCC70 cells [5] = conditions: 0~10 μM, dark
Description: In the dark state without light, the C-EGFR conjugate of the present invention was treated with 0˜10 μM concentration in HCC70 cells and cytotoxicity was evaluated.

[6] = Fluorescence recovery by reducing agent (DTT) treatment; conditions: 5 mM DTT; for Increase of fluorescence intensity by DTT treatment: 4 hours, conjugate 2 μM in PBS, λEx 400 nm, λEm 665 nm
Description: The increase of fluorescence and reactive oxygen generation by reducing agent treatment was analyzed.
In the dithiothreitol (DTT) treatment sample, which is a reducing agent, 2 μM of a conjugate was mixed with 2 μM and 5 mM DTT, and the same amount of phosphate-buffered saline (PBS) was added to the buffer-treated group. The fluorescent intensity of the mixed solution (200 μl) was measured at intervals of 30 minutes for 4 hours (λEx. 400 nm, λEm. 665 nm).
Fluorescence recovery of the conjugate thus obtained by the reaction in response to a reducing agent present in a high concentration in cancer cells was performed and analyzed in the same manner as in Example 2. On the other hand, a sample prepared by dilution was put into a multifunctional microplate reader to obtain fluorescence spectrum (λEx. 400 nm, λEm. 620˜850 nm) results.
Meanwhile, in order to analyze the reactivity of the reducing agent/enzyme complex reaction type Ce4-CRRCW conjugate to the reducing agent, the conjugate was treated with reducing agents DTT 2 μM and 5 mM for 6 hours and put into a multifunctional microplate reader to obtain the fluorescence spectrum (λEx. 400 nm, λEm. 620˜850 nm) results. In order to analyze the reactivity to the enzyme, the conjugate was treated with cathepsins B, S, L, and S, or cathepsin B pretreated with cathepsin inhibitor E64 for 6 hours and put into a multifunctional microplate reader to obtain the fluorescence spectrum (λEx. 400 nm, λEm. 620˜850 nm) results. In order to analyze the reducing agent/enzyme complex reaction, 5 mM DTT and cathepsin B enzyme were treated together for 6 hours and put into a multifunctional microplate reader to obtain the fluorescence spectrum (λEx. 400 nm, λEm. 620˜850 nm) results.

PCA-SMC cells [7] = assay: Photodynamic therapy efficacy, CCK-8 assay after 670 nm laser; type: cell-based, human; conditions: 10 μM, 4 h treatment, washed
Description: In order to evaluate the efficacy of photodynamic therapy, PCA-SMC cells were put in a 1×10^3/well and MDA-MB-231 cells and MDA-MB-468 cells were put as much as 1×10^4/well in a 96-well plate, respectively, and were cultured for 24 hours to allow the cells to be adhered well. L-EGFR conjugates were prepared at concentrations of 0.1 μM, 0.5 μM, 1 μM, 2 μM, 5 μM and 10 μM, respectively, treated with cells, and then cultured for 4 hours. Thereafter, the conjugate that had not been absorbed into cells was washed and removed, and then irradiated with a 670 nm laser at an irradiation dose density of 50 mW/cm^2 for 6 minutes and 40 seconds. Thereafter, after further culturing in an incubator until the next day, the cytotoxicity was assessed by CCK-8 assay.

trypsin enzyme = conditions: after 4 hours, 37° C., PBS, λEm 665 nm
Description: 1 nmol of each of Ce4-RRWW and Ce4-RRWWW thus obtained was prepared and dissolved in a PBS solution. The trypsin enzyme was mixed with each […] of each conjugate and fluorescence changes were observed over time at 37° C.

[8] = 2 μM, PBS including 10% FBS, room temperature, 4 hours
Description: The L-EGFR conjugate of the present invention was mixed with PBS including 10% […], fetal bovine serum (FBS, Gibco, USA), respectively, and cultured, and the stability in the serum was evaluated. The final concentration of the conjugate in solution was adjusted to 2 μM. The solution was allowed to react at room temperature for 4 hours and then put in a multifunctional microplate reader (Safire 2, Tecan, Switzerland) to obtain a fluorescence spectrum (λEx. 400 nm) result.
The Ce4-RRW conjugate of the present invention was mixed with PBS including 10% of FBS and cultured to evaluate the stability in serum. The final concentration of the conjugate in solution was adjusted to 2 μM. The solution was allowed to react at room temperature for 4 hours and then put in a multifunctional microplate reader to obtain a fluorescence spectrum (λEx. 610 nm, λEm. 620˜850 nm) result.

KB cells = conditions: 2 μM
Description: KB cells per well were put in a 4-well Lab-Tek chamber per 2×10^5, and were cultured for 24 hours to allow the cells to be absorbed well. Thereafter, the existing medium was replaced with 500 μl of fresh medium in which the Ce4-RRW conjugate (2 μM) was dissolved, and then the cells were cultured for 4 hours.
Finally, the cells were washed three times with the culture medium, and then a near-infrared fluorescence image (λEx. 405 nm, λEm. 625˜754 nm) was obtained using a confocal laser microscope.
Experiments were performed to determine the intracellular location of the Ce4-RRW of the present invention. In the 8-well Lab-Tek chamber, 5×10^4 KB cells were put in each well. The cells were cultured for 24 hours to allow the cells to be absorbed well, and then 2 μM Ce4-RRW was added and cultured for 4 hours, followed by washing three times. Thereafter, after replacing the existing medium with fresh medium including 100 nM LysoTracker Blue DND-22 dye, the cells were cultured for 45 minutes. Fluorescent images of the Ce4-RRW (λEx. 405 nm, λEm. 625˜754 nm) and LysoTracker (λEx. 405 nm, λEm. 411˜497 nm) were obtained for these samples using confocal microscopy.

MDA-MB-468 cells [9] = conditions: 0~10 μM, dark
Description: In the dark state without light, the L-EGFR conjugate of the present invention was added to MDA-MB-468 cells at a concentration of 0˜10 μM and cytotoxicity was evaluated.

MDA-MB-231 cells = assay: Cell absorption and fluorescence activity, confocal laser microscope; type: cell-based, human; conditions: 2 μM
Description: as §1

MDA-MB-468 cells [10] = assay: as above; type: cell-based, human; conditions: 2 μM
Description: as §1
L-EGFR conjugate was treated at a concentration of 2 μM and was cultured for 4 hours, followed by washing three times.

Row | Compound | Intracellular fluorescence signal / cell entry (PCA-SMC cells [1]) | Fluorescence image without washing (HCC70 cells [2]) | Increase of singlet oxygen generation [4] | Generation of singlet oxygen in the quenched state [4] | Increase of fluorescence intensity by DTT treatment [6] | Cells alive after photodynamic therapy (PCA-SMC cells [7]) | Increase of fluorescence versus initial fluorescence after trypsin treatment (trypsin enzyme) | Effect of serum protein on fluorescence of the conjugate [8] | other results
1 | C=Cc1c(C)c2cc3nc(c(C)c4[nH]c(cc5nc(cc1[nH]2)C(C)=C5CC)c(C)c4C(=O)O)[C@@H](CCC(=O)NCCOCCOCC(=O)N[C@H]1CSSC[C@@H](C(=O)N[C@@H](Cc2ccc(O)cc2)C(=O)N[C@@H](Cc2c[nH]cn2)C(=O)N[C@@H](Cc2c[nH]c4ccccc24)C(=O)N[C@@H](Cc2ccc(O)cc2)C(=O)NCC(=O)N[C@@H](Cc2ccc(O)cc2)C(=O)N[C@H](C(=O)N2CCC[C@H]2C(=O)N[C@@H](CCC(N)=O)C(=O)N[C@@H](CC(N)=O)C(=O)N[C@H](C(=O)N[C@H](C(=O)O)[C@@H](C)CC)C(C)C)[C@@H](C)O)NC1=O)[C@@H]3C [C-EGFR] | fluorescence signals were hardly exhibited | fluorescence signal generation is inhibited from outside the cell | 5 times | inhibited | 3.4 times | at least 70% |  |  | Intracellular fluorescence signal (HCC70 cells [3]): strong fluorescence signals; Intracellular location (LysoTracker co-staining) (HCC70 cells [3]): migrated into the lysosomes; Cytotoxicity without light irradiation (HCC70 cells [5]): did not show cytotoxicity; Time to fluorescence recovery after the start of the reaction [6]: ≤ 30 min
2 | C=Cc1c(C)c2cc3nc(c(C)c4nc(cc5[nH]c(cc1[nH]2)c(C)c5CC)C(C)=C4C(=O)O)[C@@H](CCC(=O)N[C@@H](CCCNC(=N)N)C(=O)N[C@@H](CCCNC(=N)N)C(=O)N[C@@H](Cc1c[nH]c2ccccc12)C(=O)N[C@@H](Cc1c[nH]c2ccccc12)C(=O)N[C@@H](Cc1c[nH]c2ccccc12)C(=O)O)[C@@H]3C [Ce4-RRWWW] (X1-RRWWW-OH) |  |  |  |  |  |  | 4.3 times |  | 
3 | C=Cc1c(C)c2cc3nc(c(C)c4nc(cc5[nH]c(cc1[nH]2)c(C)c5CC)C(C)=C4C(=O)O)[C@@H](CCC(=O)N[C@@H](CCCNC(=N)N)C(=O)N[C@@H](CCCNC(=N)N)C(=O)N[C@@H](Cc1c[nH]c2ccccc12)C(=O)N[C@@H](Cc1c[nH]c2ccccc12)C(=O)O)[C@@H]3C [Ce4-RRWW] |  |  |  |  |  |  | about 1.6 times |  | 
4 | C=Cc1c(C)c2cc3nc(c(C)c4nc(cc5[nH]c(cc1[nH]2)c(C)c5CC)C(C)=C4C(=O)O)[C@@H](CCC(=O)N[C@@H](CCCNC(=N)N)C(=O)N[C@@H](CCCNC(=N)N)C(=O)N[C@@H](Cc1c[nH]c2ccccc12)C(=O)O)[C@@H]3C [Ce4-RRW] |  |  |  |  |  |  |  | did not affect the fluorescence | Intracellular fluorescence signal (KB cells): strong fluorescence signal; Intracellular location (LysoTracker co-staining) (KB cells; 4 hours): located in the lysosome
5 | C=Cc1c(C)c2cc3nc(c(C)c4[nH]c(cc5nc(cc1[nH]2)C(C)=C5CC)c(C)c4C(=O)O)[C@@H](CCC(=O)NCCOCCOCC(=O)N[C@@H](CSSC[C@H](N)C(=O)N[C@@H](Cc1ccc(O)cc1)C(=O)N[C@@H](Cc1c[nH]cn1)C(=O)N[C@@H](Cc1c[nH]c2ccccc12)C(=O)N[C@@H](Cc1ccc(O)cc1)C(=O)NCC(=O)N[C@@H](Cc1ccc(O)cc1)C(=O)N[C@H](C(=O)N1CCC[C@H]1C(=O)N[C@@H](CCC(N)=O)C(=O)N[C@@H](CC(N)=O)C(=O)N[C@H](C(=O)N[C@H](C(=O)O)[C@@H](C)CC)C(C)C)[C@@H](C)O)C(=O)O)[C@@H]3C [L-EGFR] | did not enter the cell even after culturing for 4 hours |  | 2 times | suppressed | 2.5 times | at least 70% |  | did not affect the fluorescence intensity | Cytotoxicity without light irradiation (MDA-MB-468 cells [9]): did not show cytotoxicity; Intracellular fluorescence signal with culture time (MDA-MB-231 cells; 30 minutes to 4 hours): fluorescence intensity was increased with increasing culture time; Intracellular fluorescence signal (MDA-MB-231 cells; first 30 minutes): fluorescence was almost not observed; Fluorescence signal (MDA-MB-468 cells [10]; 30 minutes): strong fluorescence signal on the cell surface; Intracellular location (LysoTracker co-staining) (MDA-MB-468 cells [10]; 4 hours): activated in the lysosome; Fluorescence recovered within 5 minutes after the start of the reaction [6]: at least 90%
6 | chlorin e4 [free photosensitizer, reference compound] |  | position of cancer cells cannot be distinguished |  |  |  |  |  |  | 
